The text below walks through data of US20260217672A1, “BENZAMIDE COMPOUNDS FOR TREATMENT OF BACTERIAL INFECTIONS” (Hoffmann-La Roche Inc., priority 2022, published 2026).

Structures are written as SMILES. ≈ marks a conversion by molar mass, not a printed value. Read-outs that look alike come from different tables or passages of the source.

Usually MIC stands for the lowest concentration found to suppress growth.

The subject of assay [1] is Escherichia coli ATCC 25922. The assay can be described thus: Minimal Inhibitory Concentration (MIC) broth dilution assay. Particulars: read-out: MIC Escherichia coli ATCC 25922. The assay is classed as cell-based. Put shortly:
(§1)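 Broth dilution MIC in cation-adjusted Mueller Hinton broth, final inoculum 5×10^5 CFU/mL, serial 2-fold compound dilutions from DMSO stocks. Plates incubated 20 hours at 35° C. in ambient air; MIC read visually as lowest concentration inhibiting visible growth.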

The test system of assay [2] is Klebsiella pneumonia ATCC 43816. The assay is described as above. The format is cell-based. Particulars: Klebsiella pneumoniae, read-out: MIC Klebsiella pneumoniae ATCC43816. Put shortly: as §1

For the molecule `NCCCNC1Cc2ccc(C(=O)Nc3ccc(S(=O)(=O)N4CCN(c5cc(C(F)(F)F)cc(Cl)n5)CC4)cc3)cc2C1` (centres unmarked) [Example 061, 2-(3-Aminopropylamino)-N-[4-[4-[6-chloro-4-(trifluoromethyl)-2-pyridyl]piperazin-1-yl]sulfonylphenyl]indane-5-carboxamide], the MIC in assay [1] (ATCC25922, 20 h) was determined as 0.53 mg/L (≈ 0.832 µM); in assay [2] (ATCC43816, 20 h), 1.1 mg/L (≈ 1.73 µM).
The matching figures for `NCCCNC1CCc2ccc(C(=O)Nc3ccc(S(=O)(=O)N4CCN(c5cc(C(F)(F)F)cc(Cl)n5)CC4)cc3)cc21` (centres unmarked) [Example 062, 3-(3-Aminopropylamino)-N-[4-[4-[6-chloro-4-(trifluoromethyl)-2-pyridyl]piperazin-1-yl]sulfonylphenyl]indane-5-carboxamide]: 2.1 mg/L (≈ 3.3 µM) and 4.2 mg/L (≈ 6.59 µM).
On the same counts, the results for `COc1ccc(CN2CCC3CN(C)CC32)cc1C(=O)Nc1ccc(S(=O)(=O)N2CCN(c3cc(C(F)(F)F)cc(Cl)n3)CC2)cc1` (centres unmarked) [Example 063, N-[4-[4-[6-chloro-4-(trifluoromethyl)-2-pyridyl]piperazin-1-yl]sulfonylphenyl]-2-methoxy-5-[(5-methyl-2,3,3a,4,6,6a-hexahydropyrrolo[2,3-c]pyrrol-1-yl)methyl]benzamide] are 4.3 mg/L (≈ 6.2 µM) and 4.3 mg/L (≈ 6.2 µM).
`NCCCNC1CCc2cc(C(=O)Nc3ccc(S(=O)(=O)N4CCN(c5cc(C(F)(F)F)cc(Cl)n5)CC4)cc3)ccc21` (centres unmarked) [Example 064, 1-(3-Aminopropylamino)-N-[4-[4-[6-chloro-4-(trifluoromethyl)-2-pyridyl]piperazin-1-yl]sulfonylphenyl]indane-5-carboxamide]: the MIC in assay [1] (ATCC25922, 20 h) came to 2.1 mg/L (≈ 3.3 µM); in assay [2] (ATCC43816, 20 h), 4.2 mg/L (≈ 6.59 µM).
With `NCCCOc1ccc(C(=O)Nc2ccc(S(=O)(=O)N3CCN(c4cc(C(F)(F)F)cc(Cl)n4)CC3)cc2)cc1OCCCN` [Example 065, 3,4-Bis(3-Aminopropoxy)-N-[4-[4-[6-chloro-4-(trifluoromethyl)-2-pyridyl]piperazin-1-yl]sulfonylphenyl]benzamide], the MIC amounted to 0.26 mg/L (≈ 0.387 µM) in assay [1] (ATCC25922, 20 h) and 0.52 mg/L (≈ 0.775 µM) in assay [2] (ATCC43816, 20 h).
The matching figures for `NCCCN1CCCC1c1cccc(C(=O)Nc2ccc(S(=O)(=O)N3CCN(c4cc(C(F)(F)F)cc(Cl)n4)CC3)cc2)c1` (centres unmarked) [Example 066, 3-[1-(3-Aminopropyl)pyrrolidin-2-yl]-N-[4-[4-[6-chloro-4-(trifluoromethyl)-2-pyridyl]piperazin-1-yl]sulfonylphenyl]benzamide]: 0.51 mg/L (≈ 0.783 µM) and 1 mg/L (≈ 1.54 µM).
The matching figures for `NCCCN1CCC(c2cccc(C(=O)Nc3ccc(S(=O)(=O)N4CCN(c5cc(C(F)(F)F)cc(Cl)n5)CC4)cc3)c2)C1` (centres unmarked) [Example 067, 3-[1-(3-Aminopropyl)pyrrolidin-3-yl]-N-[4-[4-[6-chloro-4-(trifluoromethyl)-2-pyridyl]piperazin-1-yl]sulfonylphenyl]benzamide]: 0.51 mg/L (≈ 0.783 µM) and 1 mg/L (≈ 1.54 µM).
`NC1CCN(CCc2ccc(C(=O)Nc3ccc(S(=O)(=O)N4CCN(c5cc(C(F)(F)F)cc(Cl)n5)CC4)cc3)cc2)C1` (centres unmarked) [Example 069, 4-[2-(3-Aminopyrrolidin-1-yl)ethyl]-N-[4-[4-[6-chloro-4-(trifluoromethyl)-2-pyridyl]piperazin-1-yl]sulfonylphenyl]benzamide]: the MIC in assay [1] (ATCC25922, 20 h) is 1.2 mg/L (≈ 1.88 µM); in assay [2] (ATCC43816, 20 h) it was 2.3 mg/L (≈ 3.61 µM).
For `NC1CCC12CN(CCc1ccc(C(=O)Nc3ccc(S(=O)(=O)N4CCN(c5cc(C(F)(F)F)cc(Cl)n5)CC4)cc3)cc1)C2` (centres unmarked) [Example 070, 4-[2-(7-Amino-2-azaspiro[3.3]heptan-2-yl)ethyl]-N-[4-[4-[6-chloro-4-(trifluoromethyl)-2-pyridyl]piperazin-1-yl]sulfonylphenyl]benzamide], the MIC was determined as 1.2 mg/L (≈ 1.81 µM) in assay [1] (ATCC25922, 20 h) and 2.4 mg/L (≈ 3.62 µM) in assay [2] (ATCC43816, 20 h).
The matching figures for `CN1CC2CCN(CCc3ccc(C(=O)Nc4ccc(S(=O)(=O)N5CCN(c6cc(C(F)(F)F)cc(Cl)n6)CC5)cc4)cc3)C2C1` (centres unmarked) [Example 071, N-[4-[4-[6-chloro-4-(trifluoromethyl)-2-pyridyl]piperazin-1-yl]sulfonylphenyl]-4-[2-(5-methyl-2,3,3a,4,6,6a-hexahydropyrrolo[2,3-c]pyrrol-1-yl)ethyl]benzamide]: 4.2 mg/L (≈ 6.2 µM) and 4.2 mg/L (≈ 6.2 µM).
For the molecule `O=C(Nc1ccc(S(=O)(=O)N2CCN(c3cc(C(F)(F)F)cc(Cl)n3)CC2)cc1)c1ccc(CCNCCCN2CCOCC2)cc1` [Example 073, N-[4-[4-[6-chloro-4-(trifluoromethyl)-2-pyridyl]piperazin-1-yl]sulfonylphenyl]-4-[2-(3-morpholinopropylamino)ethyl]benzamide], the MIC in assay [1] (ATCC25922, 20 h) turned out to be 1.4 mg/L (≈ 2.01 µM); in assay [2] (ATCC43816, 20 h) it was 2.9 mg/L (≈ 4.17 µM).
On to `NC1CC12CCN(CCc1ccc(C(=O)Nc3ccc(S(=O)(=O)N4CCN(c5cc(C(F)(F)F)cc(Cl)n5)CC4)cc3)cc1)C2` (centres unmarked) [Example 074, 4-[2-(2-Amino-5-azaspiro[2.4]heptan-5-yl)ethyl]-N-[4-[4-[6-chloro-4-(trifluoromethyl)-2-pyridyl]piperazin-1-yl]sulfonylphenyl]benzamide], for which the MIC stood at 2.8 mg/L (≈ 4.22 µM) in assay [1] (ATCC25922, 20 h) and 2.8 mg/L (≈ 4.22 µM) in assay [2] (ATCC43816, 20 h).
As for `O=C(Nc1ccc(S(=O)(=O)N2CCN(c3cc(C(F)(F)F)cc(Cl)n3)CC2)cc1)c1ccc(CCN2C3CNCC2C3)cc1` [Example 075, N-[4-[4-[6-chloro-4-(trifluoromethyl)-2-pyridyl]piperazin-1-yl]sulfonylphenyl]-4-[2-(3,6-diazabicyclo[3.1.1]heptan-6-yl)ethyl]benzamide], the MIC amounted to 2.7 mg/L (≈ 4.16 µM) in assay [1] (ATCC25922, broth dilution in CAMHB, 5×10^5 CFU/mL, 20 hours at 35° C.) and 5.5 mg/L (≈ 8.47 µM) in assay [2] (ATCC43816, broth dilution in CAMHB, 5×10^5 CFU/mL, 20 hours at 35° C.).
For the molecule `O=C(Nc1ccc(S(=O)(=O)N2CCN(c3cc(C(F)(F)F)cc(Cl)n3)CC2)cc1)c1cccc(CNCC2CCNCC2)c1` [Example 076, N-[4-[4-[6-chloro-4-(trifluoromethyl)-2-pyridyl]piperazin-1-yl]sulfonylphenyl]-3-[(4-piperidylmethylamino)methyl]benzamide], the MIC in assay [1] (ATCC25922, 20 h) was 0.69 mg/L (≈ 1.06 µM); in assay [2] (ATCC43816, 20 h), 2.7 mg/L (≈ 4.15 µM).
On the same counts, the results for `NC1CC(CNCc2cccc(C(=O)Nc3ccc(S(=O)(=O)N4CCN(c5cc(C(F)(F)F)cc(Cl)n5)CC4)cc3)c2)C1` (centres unmarked) [Example 077, 3-[[(3-Aminocyclobutyl)methylamino]methyl]-N-[4-[4-[6-chloro-4-(trifluoromethyl)-2-pyridyl]piperazin-1-yl]sulfonylphenyl]benzamide] are 0.68 mg/L (≈ 1.07 µM) and 2.7 mg/L (≈ 4.24 µM).
For `NC1(C2CCN(Cc3cccc(C(=O)Nc4ccc(S(=O)(=O)N5CCN(c6cc(C(F)(F)F)cc(Cl)n6)CC5)cc4)c3)C2)CC1` (centres unmarked) [Example 079, 3-[[3-(1-Aminocyclopropyl)pyrrolidin-1-yl]methyl]-N-[4-[4-[6-chloro-4-(trifluoromethyl)-2-pyridyl]piperazin-1-yl]sulfonylphenyl]benzamide], the MIC is 1.1 mg/L (≈ 1.66 µM) in assay [1] (ATCC25922, 20 h) and 2.2 mg/L (≈ 3.32 µM) in assay [2] (ATCC43816, 20 h).
Regarding `O=C(Nc1ccc(S(=O)(=O)N2CCN(c3cc(C(F)(F)F)cc(Cl)n3)CC2)cc1)c1cccc(CNCCCN(CCO)CCO)c1` [Example 080, 3-[[3-[Bis(2-hydroxyethyl)amino]propylamino]methyl]-N-[4-[4-[6-chloro-4-(trifluoromethyl)-2-pyridyl]piperazin-1-yl]sulfonylphenyl]benzamide], the minimal inhibitory concentration (MIC) in assay [1] (ATCC25922, 20 h) was found to be 1.4 mg/L (≈ 2 µM); in assay [2] (ATCC43816, 20 h) it was 2.9 mg/L (≈ 4.15 µM).
As for `COc1ccc(CNCCCC2CCNCC2)cc1C(=O)Nc1ccc(S(=O)(=O)N2CCN(c3cc(C(F)(F)F)cc(Cl)n3)CC2)cc1` [Example 081, N-[4-[4-[6-chloro-4-(trifluoromethyl)-2-pyridyl]piperazin-1-yl]sulfonylphenyl]-2-methoxy-5-[[3-(4-piperidyl)propylamino]methyl]benzamide], the MIC in assay [1] (ATCC25922, 20 h) turned out to be 1.5 mg/L (≈ 2.11 µM); in assay [2] (ATCC43816, 20 h), 2.9 mg/L (≈ 4.09 µM).
The matching figures for `NCC12CC1CN(Cc1cccc(C(=O)Nc3ccc(S(=O)(=O)N4CCN(c5cc(C(F)(F)F)cc(Cl)n5)CC4)cc3)c1)C2` (centres unmarked) [Example 082, 3-[[1-(Aminomethyl)-3-azabicyclo[3.1.0]hexan-3-yl]methyl]-N-[4-[4-[6-chloro-4-(trifluoromethyl)-2-pyridyl]piperazin-1-yl]sulfonylphenyl]benzamide]: 0.69 mg/L (≈ 1.06 µM) and 1.4 mg/L (≈ 2.16 µM).
For the molecule `O=C1NC(CNCc2cccc(C(=O)Nc3ccc(S(=O)(=O)N4CCN(c5cc(C(F)(F)F)cc(Cl)n5)CC4)cc3)c2)CO1` (centres unmarked) [Example 084, N-[4-[4-[6-chloro-4-(trifluoromethyl)-2-pyridyl]piperazin-1-yl]sulfonylphenyl]-3-[[(2-oxooxazolidin-4-yl)methylamino]methyl]benzamide], the MIC in assay [1] (ATCC25922, 20 h) is 4.8 mg/L (≈ 7.35 µM); in assay [2] (ATCC43816, 20 h), 4.8 mg/L (≈ 7.35 µM).
With `COc1ccc(CN2CCC3CNCC32)cc1C(=O)Nc1ccc(S(=O)(=O)N2CCN(c3cc(C(F)(F)F)cc(Cl)n3)CC2)cc1` (centres unmarked) [Example 087, 5-(3,3a,4,5,6,6a-Hexahydro-2H-pyrrolo[3,4-b]pyrrol-1-ylmethyl)-N-[4-[4-[6-chloro-4-(trifluoromethyl)-2-pyridyl]piperazin-1-yl]sulfonylphenyl]-2-methoxy-benzamide], the MIC was 1.2 mg/L (≈ 1.77 µM) in assay [1] (ATCC25922, 20 h) and 2.5 mg/L (≈ 3.68 µM) in assay [2] (ATCC43816, 20 h).
For `NCCCNCc1ccccc1C(=O)Nc1ccc(S(=O)(=O)N2CCN(c3cc(C(F)(F)F)cc(Cl)n3)CC2)cc1` [Example 088, 2-[(3-Aminopropylamino)methyl]-N-[4-[4-[6-chloro-4-(trifluoromethyl)-2-pyridyl]piperazin-1-yl]sulfonylphenyl]benzamide], the MIC came to 1.3 mg/L (≈ 2.13 µM) in assay [1] (ATCC25922, 20 h) and 2.6 mg/L (≈ 4.25 µM) in assay [2] (ATCC43816, 20 h).
